Patent US20220306623A1, “PYRIDYL OR PYRIMIDYL MTOR KINASE INHIBITORS” (GLAXOSMITHKLINE INTELLECTUAL PROPERTY DEVELOPMENT LIMITED, priority 2019, published 2022)

What follows are compounds tested on phosphorylated Akt at serine 473 (pAKTs473) in primary lung fibroblasts derived from explanted tissue (assay: Phosphorylated Akt (Ser473) in vitro immunoassay (MSD), fibroblasts from explanted tissue). Conditions: Homo sapiens, Primary lung fibroblast, 96-well, compound 2 h, PDGF-BB 10 ng/ml 15 min, read-out: mean pIC50, pAKTs473 immunoassay (converted).
Assay type: cell-based
Excerpt: Immunoassay using the Meso Scale Discovery (MSD) platform to measure the effect of test compounds on phosphorylated Akt at serine 473 (pAKTs473) in primary lung fibroblasts derived from explanted tissue. The human biological samples were sourced ethically and their research use was in accord with the terms of the informed consents under an IRB/EC approved protocol.
Human lung fibroblasts were routinely maintained in Dulbecco's Modified Eagle Medium (DMEM; Gibco, catalogue no. 21969-035) supplemented with 10% foetal bovine serum (FBS (heat-inactivated); Gibco, catalogue no. 10270-106) and 4 mM L-glutamine (Gibco, catalogue no. 25030024) at 37° C. in 10% CO2.
For the assay, cells were harvested using Trypsin/EDTA (Gibco, catalogue no. 25300-062), resuspended to give 1.2×10^5 cells/ml and 100 ul/well seeded into 96-well plates (Corning, Catalogue No. 3596) in DMEM supplemented with 0.4% FCS and 4 mM L-glutamine and incubated overnight at 37° C. in 10% CO2.
Test compounds were dissolved in 100% DMSO to give 10 mM stock solutions and serially diluted to generate a 10-point concentration response curve. Compounds were further diluted 100-fold into 96-well V-bottom polypropylene plates (Greiner, Catalogue no. 651201) with DMEM supplemented with 0.4% FCS and 4 mM L-glutamine to give 100 µM top compound concentration in 1% DMSO.
Compounds were further diluted 10-fold by transfer to 96-well plates containing cells ([…] top concentration, 0.1% DMSO final) and incubated for 2 h at 37° C. in 10% CO2, prior to stimulation with platelet-derived growth factor (PDGF)-BB (Gibco, Catalogue no. PHG0041) at 10 ng/ml (final) for 15 min at 37° C. in 10% CO2. Cell assay plates were then incubated on ice and treated with lysis buffer (Cell Signalling Technology, Catalogue No. 9803) containing protease and phosphatase inhibitors (Halt, Thermo Scientific, Catalogue No. 78444) for 30 min.
MSD plates (MSD, Phospho(Ser473)/Total Akt Whole Cell Lysate Kit, Catalogue No. K15100D-3) were blocked with 1×blocking buffer as per the manufacturer's instructions at RT with shaking, followed by washing (×3) with Tris-buffered saline containing 0.05% Tween-20 (TBST). Cell lysates (30 ul) were added and MSD plates incubated for 1 h at RT with shaking.
Plates were washed with TBST (×3), prior to addition of SULFO-TAG Anti-Total Akt Antibody as per the manufacturer's instructions and shaken at RT for 1 h. After washing with 1×TBST (×3), read buffer (1×) (MSD, Catalogue No. R92TC-1) was added as per the manufacturer's instructions before detecting electrochemiluminescence (MSD Sector Imager 600).
Data analysis was performed using non-linear regression analysis to determine IC50 values for test compounds. Minimum (no PDGF-BB stimulation) and maximum responses (+PDGF-BB stimulation) were monitored for assay quality control.

SMILES	IC50 [µM]
CC[C@H]1COCCN1c1cc(CS(C)(=O)=O)nc(-c2ccc3[nH]c(CNC)cc3n2)n1 [Example 1, [(5-{4-[(3S)-3-ethylmorpholin-4-yl]-6-(methanesulfonylmethyl)pyrimidin-2-yl}-1H-pyrrolo[3,2-b]pyridin-2-yl)methyl](methyl)amine]	< 0.1
CC[C@H]1COCCN1c1cc(CS(N)(=O)=O)nc(-c2ccc3[nH]c(CNC)cc3n2)n1 [Example 6, {6-[(3S)-3-ethylmorpholin-4-yl]-2-{2-[(methylamino)methyl]-1H-pyrrolo[3,2-b]pyridin-5-yl}pyrimidin-4-yl}methanesulfonamide]	< 0.1
CCc1cc2nc(-c3nc(CS(C)(=O)=O)cc(N4C(=O)COC[C@@H]4CC)n3)ccc2[nH]1 [Example 15, (5S)-5-ethyl-4-(2-{2-ethyl-1H-pyrrolo[3,2-b]pyridin-5-yl}-6-(methanesulfonylmethyl)pyrimidin-4-yl)morpholin-3-one]	< 0.1
CC[C@H]1COCC(=O)N1c1cc(CS(C)(=O)=O)cc(-c2ccc3[nH]c(C)cc3n2)n1 [Example 24, (S)-5-ethyl-4-(6-(2-methyl-1H-pyrrolo[3,2-b]pyridin-5-yl)-4-((methylsulfonyl)methyl)pyridin-2-yl)morpholin-3-one]	< 0.1

The compounds below were run on type I collagen deposition in primary lung fibroblasts derived from human tissue (assay: Type I collagen deposition (scar-in-a-jar) high content screening assay). Conditions: Primary lung fibroblast, 72 h, human pulmonary fibroblasts, 96-well, TGFβ-1 1 ng/ml 72 h, collagen intensity, read-out: mean pIC50, type I collagen deposition (scar-in-a-jar) (converted).
Assay type: cell-based
Experimental: Cellular type I collagen deposition was measured by adapting a published method; scar-in-a-jar (Chen et al., 2009) to primary lung fibroblasts derived from human tissue and combining with high content analysis to permit fluorescent quantification of collagen deposited in the extracellular matrix (ECM). The human biological samples were sourced ethically and their research use was in accord with the terms of the informed consents under an IRB/EC approved protocol. Human pulmonary fibroblasts were maintained in DMEM media (Gibco, Catalogue No 21969) supplemented with 4 mM L-glutamine (Gibco Catalogue No 25030-024) and 100/heat inactivated FBS (Gibco #10270-106, Lot #42F6663K) at 37° C. in 10%/CO2. Cells were harvested and seeded at 10,000 cells per well (85 μL/well) into black walled 96 well imaging plates (BD Falcon, 353219) in assay media (0.4%/heat inactivated FBS, 4 mM L-glutamine) and incubated overnight at 37° C., 10%/CO2.
Test compounds were dissolved in 1000/DMSO to give 10 mM stocks which were further diluted (serial 1:3) to generate 10 point concentration response curves. Assay media was supplemented with 112.5 mg/ml Ficoll 70 (Sigma, Catalogue No F2878), 75 mg/ml Ficoll 400 (Sigma, Catalogue No F4375) and 50 µg/ml ascorbic acid (Sigma, Catalogue No A8960). 3 μL compound were added to 297 μL assay media (10× compound final concentration in 1% DMSO).
Diluted compounds (15 μL) were transferred to plates containing cells and incubated for 3 h at 37° C. in 10% CO2. Transforming growth factor (TGF)β-1 (R&D Systems, Catalogue No 100-B/CF) was reconstituted according to manufacturer's instructions to give 10 µg/mL (stock) and further diluted (1 in 3333) in assay media containing Ficoll and ascorbic acid. 50 μL TGFβ-1 was added to cell plates (1 ng/ml final) and cells incubated for 72 h at 37° C. in 10% CO2.
Media was removed and cells were fixed with 50 µL/well 100% ice-cold methanol (2 min). Methanol was decanted and cells washed with PBS (3×). To permeabilise, cells were incubated with PBS containing 0.1% Triton X 100 for 90 sec, followed by PBS wash (3×). Cells were incubated with mouse anti human type I collagen monoclonal antibody (Sigma, Catalogue No C2456) diluted 1:1000 in PBS overnight at 4° C. Cells were washed with PBS containing 0.05% Tween-20 (3×) and incubated with secondary alexa fluor 488 goat-anti-mouse antibody (Invitrogen, Catalogue No A11001, 1 in 500 in PBS) and Hoechst 33342 (Sigma, Catalogue No H21492), 1 in 10000 in PBS) for 1 h at RT, prior to washing with PBS containing 0.05% Tween (×3) before finally adding 200 µL/well PBS.
Type I collagen immunoreactivity was detected using the Thermofisher CellInsight NXT set to excitation and emission wavelengths for DAPI and FITC with exposure adjusted to appropriate levels. Images were analysed using Cellomics Studio software (Version 6.6.0, build 8153) and computational algorithms to quantify “collagen intensity” and “cell count”.
Data analysis was performed by determining % response values for test compounds relative to the maximum (TGFβ-1 stimulation) fitting a ‘log(inhibitor) vs. response-Variable slope (four parameters)’ curve and recording pIC50 (inverse of Log IC50) values for test compounds.

SMILES	IC50 [µM]
CC[C@H]1COCCN1c1cc(CS(C)(=O)=O)nc(-c2ccc3[nH]c(CO)cc3n2)n1 [Example 2, (S)-(5-(4-(3-ethylmorpholino)-6-((methylsulfonyl)methyl)pyrimidin-2-yl)-1H-pyrrolo[3,2-b]pyridin-2-yl)methanol]	< 3.98
CC[C@H]1COCCN1c1cc(C2(S(C)(=O)=O)CCOCC2)nc(-c2ccc3[nH]c(CO)cc3n2)n1 [Example 4, (5-{4-[(3S)-3-ethylmorpholin-4-yl]-6-(4-methanesulfonyloxan-4-yl)pyrimidin-2-yl}-1H-pyrrolo[3,2-b]pyridin-2-yl)methanol]	> 3.98
CC[C@H]1COCCN1c1cc(CS(N)(=O)=O)nc(-c2ccc3[nH]c(CNC)cc3n2)n1 [Example 6, {6-[(3S)-3-ethylmorpholin-4-yl]-2-{2-[(methylamino)methyl]-1H-pyrrolo[3,2-b]pyridin-5-yl}pyrimidin-4-yl}methanesulfonamide]	> 3.98
CNCc1cc2nc(-c3cc(CS(C)(=O)=O)cc(N4CCO[C@H](C)[C@H]4C)n3)ccc2[nH]1 [Example 8, 1-(5-(6-((2R,3R)-2,3-dimethylmorpholino)-4-((methylsulfonyl)methyl)pyridin-2-yl)-1Hpyrrolo[3,2-b]pyridin-2-yl)-Nmethylmethanamine]	< 3.98
CC[C@H]1COCCN1c1cc(C2(S(C)(=O)=O)CCNCC2)cc(-c2ccc3[nH]c(C)cc3n2)n1 [Example 18, (S)-3-ethyl-4-(6-(2-methyl-1H-pyrrolo[3,2-b]pyridin-5-yl)-4-(4-(methylsulfonyl)piperidin-4-yl)pyridin-2-yl)morpholine]	< 3.98
CC[C@H]1COCC(=O)N1c1cc(CS(C)(=O)=O)cc(-c2ccc3[nH]c(CO)cc3n2)n1 [Example 27]	< 3.98
